# Laboratory results: patent publication US11530229B2, “Cyano cyclobutyl compounds for CBL-B inhibition and uses thereof” (Nurix Therapeutics, Inc., priority 2019, dated 2022)
# Legend:
# Cbl-b [1] = target: T1, Cbl-b (Homo sapiens (Human), UniProt Q13191); assay: Cbl-b displacement assay (Cbl-b inhibition assay), Biological Example 1; format: binding
# In short: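 Avitag-biotinylated human Cbl-b (residues 36–427) at 0.5 nM ("High") or 0.125 nM ("Low") pre-incubated 1 h with compound (1% DMSO) in HEPES pH 7.5/NaCl/Triton/BSA/TCEP, RT. Then 1 h with 150 nM BODIPY FL inhibitor probe (~EC40) plus 2 nM streptavidin-Tb. TR-FRET read at 520/620 nm for probe displacement.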
# [2] = system: primary human total T-cells; assay: T-cell activation, IL-2 secretion, Biological Example 13; format: cell-based; conditions: 48 hours, fold change over baseline, Table 8; for IL-2 secretion CD3/CD28 0.3 μM / IL-2 secretion CD3/CD28 1 μM: anti-CD3 and anti-CD28 co-stimulation; for IL-2 secretion CD3/CD28 0.3 μM: 0.3 μM inhibitor; for IL-2 secretion CD3/CD28 1 μM / IL-2 secretion CD3 1 μM: 1 μM inhibitor; for IL-2 secretion CD3 1 μM / IL-2 secretion CD3 3 μM: anti-CD3 stimulation alone; for IL-2 secretion CD3 3 μM: 3 μM inhibitor
# [3] = system: primary human total T-cells; assay: T-cell activation, IL-2 secretion, Biological Example 2; format: cell-based; conditions: 48 hours, fold change over baseline; for fold induction at 0.3 µM: 0.3 μM inhibitor; for fold induction at 1 µM: 1 μM inhibitor; for fold induction at 3 µM: 3 μM inhibitor
# Cbl-b [4] = target: T1, Cbl-b; assay: Cbl-b displacement assay (Cbl-b inhibition assay), Biological Example 12; format: binding; conditions: 0.125 nM Cbl-b final concentration (Low), Table 7; read-out: Cbl-b IC50 (Low)
# Protocol: (§1) Candidate compounds were evaluated for their ability to bind and inhibit Cbl-b, an E3 ubiquitin-protein ligase, as evidenced by their ability to displace a fluorophore-labeled probe bound to Cbl-b.
# (§2) The ability of candidate compounds to displace a known inhibitor and thereby inhibit Cbl-b activity was measured by monitoring the interaction of Cbl-b with a fluorophore-labeled probe in the presence of the candidate compound. A truncated variant of Cbl-b (UniProt number Q13191) containing residues 36-427 and an Avitag at its N-terminus was co-expressed with BirA biotin ligase and purified using a standard protocol (see Dou et al., Nature Structural and Molecular Biology 8: 982-987, 2013; Avidity LLC).
# Fluorescently-labeled inhibitor probe was synthesized and tagged with BODIPY FL. Cbl-b displacement assays were performed in a 384-well plate at room temperature in a […] by pre-incubating 0.5 nM Cbl-b or 0.125 nM Cbl-b (final concentration, indicated as “High” and “Low,” respectively) in an assay buffer containing 20 mM HEPES pH 7.5, 150 mM NaCl, 0.01% Triton X-100, 0.01% BSA and 0.5 mM TCEP in the presence of a candidate compound in 1% DMSO (final concentration) for one hour. After incubation in the presence of the candidate compound, the plate was incubated for an additional one hour in the presence of an approximate EC40 binding saturation consisting of 150 nM fluorescently-labeled inhibitor probe and 2 nM Streptavidin-Terbium (Cisbio) (final concentrations). Following the one hour incubation, the plates were read for TR-FRET signal at […] using an Envision plate reader (Perkin Elmer).
# (§3) The resulting data for the Cbl-b activity assays were analyzed using standard methods to determine the IC50 values for the tested compounds.
# Cbl-b [5] = target: T1, Cbl-b; assay: Cbl-b displacement assay (Cbl-b inhibition assay), Biological Example 8; format: binding; conditions: 0.125 nM Cbl-b final concentration (Low), Table 4; read-out: Cbl-b IC50 (Low)
# Protocol: as §1, §2
# Fluorescently-labeled inhibitor probe was synthesized and tagged with BODIPY FL. Cbl-b displacement assays were performed in a 384-well plate at room temperature in a […] by pre-incubating 0.5 nM Cbl-b or 0.125 nM Cbl-b (final concentration, indicated as “High” and “Low,” respectively) in an assay buffer containing 20 mM HEPES pH 7.5, 150 mM NaCl, 0.01% Triton X-100, 0.01% BSA, and 0.5 mM TCEP in the presence of a candidate compound in 1% DMSO (final concentration) for 1 hour. After incubation in the presence of the candidate compound, the plate was incubated for an additional one hour in the presence of an approximate EC40 binding saturation consisting of 150 nM fluorescently-labeled inhibitor probe and 2 nM Streptavidin-Terbium (Cisbio) (final concentrations). Following the one hour incubation, the plates were read for TR-FRET signal at […] using an Envision plate reader (Perkin Elmer).
# as §3
# [6] = system: primary human total T-cells; assay: T-cell activation, CD25 surface staining, Biological Example 2; format: cell-based; conditions: 48 hours, fold change over baseline; for fold induction at 0.3 µM: 0.3 μM inhibitor; for fold induction at 1 µM: 1 μM inhibitor; for fold induction at 3 µM: 3 μM inhibitor
# [7] = system: primary human total T-cells; assay: T-cell activation, IL-2 secretion, Biological Example 9; format: cell-based; conditions: 48 hours, fold change over baseline, Table 5; for IL-2 secretion CD3/CD28 0.3 μM / IL-2 secretion CD3/CD28 1 μM: anti-CD3 and anti-CD28 co-stimulation; for IL-2 secretion CD3/CD28 0.3 μM: 0.3 μM inhibitor; for IL-2 secretion CD3/CD28 1 μM / IL-2 secretion CD3 1 μM: 1 μM inhibitor; for IL-2 secretion CD3 1 μM / IL-2 secretion CD3 3 μM: anti-CD3 stimulation alone; for IL-2 secretion CD3 3 μM: 3 μM inhibitor
# [8] = 0.125 nM Cbl-b final concentration (Low), read-out: Cbl-b activity IC50 (Low)
# [9] = read-out: IC50 values in the Cbl-b inhibition assay of Biological Example 1
# [10] = anti-CD3 and anti-CD28 co-stimulation
# [11] = anti-CD3 and anti-CD28 co-stimulation, read-out: IL-2 secretion CD3/CD28 1 μM
# [12] = anti-CD3 stimulation alone, read-out: IL-2 secretion CD3 1 μM
# [13] = anti-CD3 and anti-CD28 co-stimulation, read-out: CD25 staining CD3/CD28 1 μM
# [14] = anti-CD3 stimulation alone, read-out: CD25 staining CD3 1 μM
# T1 sequence (Q13191 36-427): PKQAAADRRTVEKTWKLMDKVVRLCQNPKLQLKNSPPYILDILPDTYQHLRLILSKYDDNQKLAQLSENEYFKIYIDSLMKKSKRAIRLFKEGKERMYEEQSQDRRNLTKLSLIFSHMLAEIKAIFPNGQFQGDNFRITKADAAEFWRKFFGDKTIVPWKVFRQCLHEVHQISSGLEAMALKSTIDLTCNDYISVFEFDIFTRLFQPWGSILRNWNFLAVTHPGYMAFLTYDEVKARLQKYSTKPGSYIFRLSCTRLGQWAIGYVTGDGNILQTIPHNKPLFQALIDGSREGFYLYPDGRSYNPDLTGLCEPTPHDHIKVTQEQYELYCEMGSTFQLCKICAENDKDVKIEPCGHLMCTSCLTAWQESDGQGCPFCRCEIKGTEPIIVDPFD
SMILES,IC50 (Cbl-b [1]; [8]) [nM],IC50 (Cbl-b [1]; [9]) [nM],"fold induction at 0.3 µM [3, 10]","fold induction at 1 µM [3, 11]","fold induction at 1 µM [3, 12]",fold induction at 3 µM ([3]; anti-CD3 stimulation alone),"fold induction at 0.3 µM [6, 10]","fold induction at 1 µM [6, 13]","fold induction at 1 µM [6, 14]",fold induction at 3 µM ([6]; anti-CD3 stimulation alone),further results
"Cn1cnnc1C[C@]1(c2cccc(N3Cc4c(cc(CN5CCC6(CC6)C5)cc4C(F)(F)F)C3=O)c2)C[C@H](C#N)C1 [Compound 4, (1r,3r)-3-(3-(6-((5-azaspiro[2.4]heptan-5-yl)methyl)-1-oxo-4-(trifluoromethyl)isoindolin-2-yl)phenyl)-3-((4-methyl-4H-1,2,4-triazol-3-yl)methyl)cyclobutane-1-carbonitrile]",1 to 2,1 to 2,≤ 15,15 to 20,0.4 to 0.85,0.4 to 0.85,1.24 to 1.39,1.24 to 1.39,> 1.15,> 1.15,IL-2 secretion CD3/CD28 0.3 μM [2]: A (A indicates >15 fold); IL-2 secretion CD3/CD28 1 μM [2]: A (A indicates >15 fold); IL-2 secretion CD3 1 μM [2]: A (A indicates >0.66 fold); IL-2 secretion CD3 3 μM [2]: A (A indicates >0.66 fold); IC50 (Cbl-b [4]): 1 to 5 nM; IC50 (Cbl-b [5]): 1 to 5 nM; IL-2 secretion CD3/CD28 0.3 μM [7]: A (A indicates >15 fold); IL-2 secretion CD3/CD28 1 μM [7]: A (A indicates >15 fold); IL-2 secretion CD3 1 μM [7]: A (A indicates >0.66 fold); IL-2 secretion CD3 3 μM [7]: A (A indicates >0.66 fold)
"C[C@@H]1CN(Cc2cc3c(c(C(F)(F)F)c2)CN(c2cccc([C@]4(Cc5nncn5C)C[C@@H](C#N)C4)c2)C3=O)CCC1(F)F [Compound 11, (1R,3r)-3-(3-(6-(((R)-4,4-difluoro-3-methylpiperidin-1-yl)methyl)-1-oxo-4-(trifluoromethyl)isoindolin-2-yl)phenyl)-3-((4-methyl-4H-1,2,4-triazol-3-yl)methyl)cyclobutane-1-carbonitrile]",1 to 2,1 to 2,> 20,> 20,> 0.85,> 0.85,1.24 to 1.39,1.24 to 1.39,1 to 1.15,≤ 1,IL-2 secretion CD3/CD28 0.3 μM [2]: A (A indicates >15 fold); IL-2 secretion CD3/CD28 1 μM [2]: A (A indicates >15 fold); IL-2 secretion CD3 1 μM [2]: A (A indicates >0.66 fold); IL-2 secretion CD3 3 μM [2]: A (A indicates >0.66 fold); IC50 (Cbl-b [4]): 1 to 5 nM; IC50 (Cbl-b [5]): 1 to 5 nM; IL-2 secretion CD3/CD28 0.3 μM [7]: A (A indicates >15 fold); IL-2 secretion CD3/CD28 1 μM [7]: A (A indicates >15 fold); IL-2 secretion CD3 1 μM [7]: A (A indicates >0.66 fold); IL-2 secretion CD3 3 μM [7]: A (A indicates >0.66 fold)
"Cn1cnnc1C[C@]1(c2cccc(N3Cc4c(cc(CN5CCC[C@H](C(F)(F)F)C5)nc4C4CC4)C3=O)c2)C[C@H](C#N)C1 [Compound 49, (1r,3r)-3-(3-(4-cyclopropyl-1-oxo-6-(((S)-3-(trifluoromethyl)piperidin-1-yl)methyl)-1,3-dihydro-2H-pyrrolo[3,4-c]pyridin-2-yl)phenyl)-3-((4-methyl-4H-1,2,4-triazol-3-yl)methyl)cyclobutane-1-carbonitrile]",< 1,< 1,> 20,> 20,> 0.85,> 0.85,> 1.39,> 1.39,> 1.15,> 1.15,
"Cn1cnnc1C[C@]1(c2cccc(N3Cc4c(cc(CN5CCCCC(F)(F)C5)cc4C(F)(F)F)C3=O)c2)C[C@H](C#N)C1 [Compound 50, (1r,3r)-3-(3-(6-((3,3-difluoroazepan-1-yl)methyl)-1-oxo-4-(trifluoromethyl)isoindolin-2-yl)phenyl)-3-((4-methyl-4H-1,2,4-triazol-3-yl)methyl)cyclobutane-1-carbonitrile]",2 to 5,2 to 5,> 20,> 20,> 0.85,0.4 to 0.85,> 1.39,> 1.39,> 1.15,> 1.15,
"Cn1cnnc1C[C@]1(c2cccc(NC(=O)c3cc(CN4CCC5(CC5)C4)cc(C4CC4)n3)c2)C[C@H](C#N)C1 [Compound 53, 4-((5-azaspiro[2.4]heptan-5-yl)methyl)-N-(3-((1r,3r)-3-cyano-1-((4-methyl-4H-1,2,4-triazol-3-yl)methyl)cyclobutyl)phenyl)-6-cyclopropylpicolinamide]",,,15 to 20,15 to 20,0.4 to 0.85,0.4 to 0.85,≤ 1.24,≤ 1.24,1 to 1.15,1 to 1.15,"IC50 (Cbl-b [1]; 0.5 nM Cbl-b final concentration (High), read-out: Cbl-b activity IC50 (High)): < 1 nM"
C[C@@H]1C[C@H](C)CN(Cc2cc(C(=O)Nc3cccc([C@]4(Cc5nncn5C)C[C@@H](C#N)C4)c3)nc(C3CC3)c2)C1 [Compound 54],< 1,,> 20,> 20,> 0.85,> 0.85,1.24 to 1.39,1.24 to 1.39,≤ 1,≤ 1,
"C[C@H]1CCCN(Cc2cc(C(=O)Nc3cccc([C@]4(Cc5nncn5C)C[C@@H](C#N)C4)c3)nc(C3CC3)c2)C1 [Compound 55, N-(3-((1r,3S)-3-cyano-1-((4-methyl-4H-1,2,4-triazol-3-yl)methyl)cyclobutyl)phenyl)-6-cyclopropyl-4-(((S)-3-methylpiperidin-1-yl)methyl)picolinamide]",< 1,,> 20,> 20,> 0.85,> 0.85,1.24 to 1.39,1.24 to 1.39,≤ 1,≤ 1,
"C[C@@H]1CN(Cc2cc(C(=O)Nc3cccc([C@]4(Cc5nncn5C)C[C@@H](C#N)C4)c3)nc(C3CC3)n2)CCC1(F)F [Compound 57, N-(3-((1r,3R)-3-cyano-1-((4-methyl-4H-1,2,4-triazol-3-yl)methyl)cyclobutyl)phenyl)-2-cyclopropyl-6-(((R)-4,4-difluoro-3-methylpiperidin-1-yl)methyl)pyrimidine-4-carboxamide]",< 1,,15 to 20,> 20,0.4 to 0.85,> 0.85,1.24 to 1.39,1.24 to 1.39,1 to 1.15,≤ 1,
